From patent US20230278972A1, “SUBSTITUTED HALOALKYL SULFONANILIDE HERBICIDES” (FMC Corporation, priority 2020, published 2023)

Experiments:
Assay type in all cases: in vivo
[1] = test system: barnyardgrass (Echinochloa crus-galli); test: Test A preemergence, barnyardgrass; conditions: Preemergence; for Barnyardgrass plant response rating: 125 g ai/ha, visual injury on 0 to 100 scale (0 no effect, 100 complete control), approximately 10 days; for Plant response rating, Barnyardgrass: 500 g ai/ha, 0 to 100 scale (0 no effect, 100 complete control)
Summary of the method: (§1)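 Test chemicals, formulated in a non-phytotoxic solvent mixture with surfactant, were sprayed postemergence on plants 2 to 10 cm tall at the one- to two-leaf stage. Preemergence treatment was a directed soil spray onto freshly seeded pots. Both used a loam soil and sand blend.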

[2] = test system: pigweed (Amaranthus retroflexus); test: Test A postemergence, pigweed; conditions: Postemergence, 0 to 100 scale (0 no effect, 100 complete control); for Plant response rating, Pigweed: 125 g ai/ha, visual injury approx. 10 days; for Pigweed plant response rating: 500 g ai/ha, visual injury vs untreated controls after approx. 10 days
Summary of the method: as §1

[3] = test system: pigweed (Amaranthus retroflexus); test: Test A preemergence, pigweed; conditions: for Pigweed plant response rating: 125 g ai/ha, visual injury on 0 to 100 scale (0 no effect, 100 complete control), approximately 10 days; for Plant response rating, Pigweed: 500 g ai/ha, 0 to 100 scale (0 no effect, 100 complete control)
Summary of the method: (§2)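 Pots: loam soil/sand blend. Pre: directed soil spray at planting. Post: plants 2–10 cm, 1–2 leaf stage. Formulation: non-phytotoxic solvent + surfactant.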

[4] = test system: Ryegrass, Italian (Italian ryegrass, Lolium multiflorum); test: Test A postemergence, Ryegrass, Italian; conditions: Postemergence, 0 to 100 scale (0 no effect, 100 complete control); for Plant response rating, Ryegrass, Italian: 125 g ai/ha, visual injury approx. 10 days; for Ryegrass, Italian plant response rating: 500 g ai/ha, visual injury vs untreated controls after approx. 10 days
Summary of the method: as §1

[5] = test system: Foxtail, Giant (giant foxtail, Setaria faberi); test: Test A preemergence, Foxtail, Giant; conditions: Preemergence; for Foxtail, Giant plant response rating: 125 g ai/ha, visual injury on 0 to 100 scale (0 no effect, 100 complete control), approximately 10 days; for Plant response rating, Foxtail, Giant: 500 g ai/ha, 0 to 100 scale (0 no effect, 100 complete control)
Summary of the method: as §1

[6] = test system: corn (Zea mays); test: Test A postemergence, corn; conditions: Postemergence, 0 to 100 scale (0 no effect, 100 complete control); for Plant response rating, Corn: 125 g ai/ha, visual injury approx. 10 days; for Corn plant response rating: 500 g ai/ha, visual injury vs untreated controls after approx. 10 days
Summary of the method: as §1

[7] = test system: kochia (Bassia scoparia); test: Test A preemergence, kochia; conditions: Preemergence; for Kochia plant response rating: 125 g ai/ha, visual injury on 0 to 100 scale (0 no effect, 100 complete control), approximately 10 days; for Plant response rating, Kochia: 500 g ai/ha, 0 to 100 scale (0 no effect, 100 complete control)
Summary of the method: as §1

[8] = test system: blackgrass (Alopecurus myosuroides); test: Test A postemergence, blackgrass; conditions: Postemergence, 0 to 100 scale (0 no effect, 100 complete control); for Plant response rating, Blackgrass: 125 g ai/ha, visual injury approx. 10 days; for Blackgrass plant response rating: 500 g ai/ha, visual injury vs untreated controls after approx. 10 days
Summary of the method: as §1

[9] = test system: wheat (Triticum aestivum); test: Test A postemergence, wheat; conditions: Postemergence, 0 to 100 scale (0 no effect, 100 complete control); for Plant response rating, Wheat: 125 g ai/ha, visual injury approx. 10 days; for Wheat plant response rating: 500 g ai/ha, visual injury vs untreated controls after approx. 10 days
Summary of the method: as §2

[10] = test system: kochia (Bassia scoparia); test: Test A postemergence, kochia; conditions: Postemergence, 0 to 100 scale (0 no effect, 100 complete control); for Plant response rating, Kochia: 125 g ai/ha, visual injury approx. 10 days; for Kochia plant response rating: 500 g ai/ha, visual injury vs untreated controls after approx. 10 days
Summary of the method: as §1

[11] = test system: galium (catchweed bedstraw, Galium aparine); test: Test A postemergence, galium; conditions: Postemergence, 0 to 100 scale (0 no effect, 100 complete control); for Plant response rating, Galium: 125 g ai/ha, visual injury approx. 10 days; for Galium plant response rating: 500 g ai/ha, visual injury vs untreated controls after approx. 10 days
Summary of the method: as §2

[12] = test system: barnyardgrass (Echinochloa crus-galli); test: Test A postemergence, barnyardgrass; conditions: Postemergence, 0 to 100 scale (0 no effect, 100 complete control); for Plant response rating, Barnyardgrass: 125 g ai/ha, visual injury approx. 10 days; for Barnyardgrass plant response rating: 500 g ai/ha, visual injury vs untreated controls after approx. 10 days
Summary of the method: as §2

[13] = test system: ragweed (common ragweed, Ambrosia artemisiifolia); test: Test A postemergence, ragweed; conditions: Postemergence, 0 to 100 scale (0 no effect, 100 complete control); for Plant response rating, Ragweed: 125 g ai/ha, visual injury approx. 10 days; for Ragweed plant response rating: 500 g ai/ha, visual injury vs untreated controls after approx. 10 days
Summary of the method: as §1

[14] = test system: Foxtail, Giant (giant foxtail, Setaria faberi); test: Test A postemergence, Foxtail, Giant; conditions: Postemergence, 0 to 100 scale (0 no effect, 100 complete control); for Plant response rating, Foxtail, Giant: 125 g ai/ha, visual injury approx. 10 days; for Foxtail, Giant plant response rating: 500 g ai/ha, visual injury vs untreated controls after approx. 10 days
Summary of the method: as §1

[15] = test system: Ryegrass, Italian (Italian ryegrass, Lolium multiflorum); test: Test A preemergence, Ryegrass, Italian; conditions: Preemergence; for Ryegrass, Italian plant response rating: 125 g ai/ha, visual injury on 0 to 100 scale (0 no effect, 100 complete control), approximately 10 days; for Plant response rating, Ryegrass, Italian: 500 g ai/ha, 0 to 100 scale (0 no effect, 100 complete control)
Summary of the method: as §1

[16] = test system: ragweed (common ragweed, Ambrosia artemisiifolia); test: Test A preemergence, ragweed; conditions: Preemergence; for Ragweed plant response rating: 125 g ai/ha, visual injury on 0 to 100 scale (0 no effect, 100 complete control), approximately 10 days; for Plant response rating, Ragweed: 500 g ai/ha, 0 to 100 scale (0 no effect, 100 complete control)
Summary of the method: as §1

SMILES | Barnyardgrass plant response rating [1] | Plant response rating, Barnyardgrass [1] | Plant response rating, Pigweed [2] | Pigweed plant response rating [2] | Pigweed plant response rating [3] | Plant response rating, Pigweed [3] | Plant response rating, Ryegrass, Italian [4] | Ryegrass, Italian plant response rating [4] | Foxtail, Giant plant response rating [5] | Plant response rating, Foxtail, Giant [5] | Plant response rating, Corn [6] | Corn plant response rating [6] | Kochia plant response rating [7] | Plant response rating, Kochia [7] | Plant response rating, Blackgrass [8] | Blackgrass plant response rating [8] | Plant response rating, Wheat [9] | Wheat plant response rating [9] | Plant response rating, Kochia [10] | Kochia plant response rating [10] | other results
Cc1cc(C)c(N(S(=O)(=O)C(F)(F)F)S(=O)(=O)C(F)(F)F)cc1-c1cc(C(F)(F)F)nn(C)c1=O [Compound 61] | 100 | 100 | 20 | 80 | 50 | 80 | 40 | 80 | 100 | 100 | 20 | 10 | 50 | 90 | 0 | 30 | 40 | 70 | 40 | 60 | Plant response rating, Galium [11]: 50; Galium plant response rating [11]: 60; Plant response rating, Barnyardgrass [12]: 20; Barnyardgrass plant response rating [12]: 80; Plant response rating, Ragweed [13]: 0; Ragweed plant response rating [13]: 30; Plant response rating, Foxtail, Giant [14]: 0; Foxtail, Giant plant response rating [14]: 70; Ryegrass, Italian plant response rating [15]: 70; Plant response rating, Ryegrass, Italian [15]: 100; Ragweed plant response rating [16]: 0; Plant response rating, Ragweed [16]: 0
Cc1cc(-c2cc(NS(=O)(=O)C(F)(F)F)c(C)cc2C)c(=O)n(C)n1 [Compound 62] | 100 | 100 | 20 | 40 | 50 | 90 | 0 | 20 | 100 | 100 | 0 | 0 | 70 | 90 | 0 | 50 | 0 | 60 | 20 | 40 | Plant response rating, Galium [11]: 70; Galium plant response rating [11]: 80; Plant response rating, Barnyardgrass [12]: 0; Barnyardgrass plant response rating [12]: 70; Plant response rating, Ragweed [13]: 0; Ragweed plant response rating [13]: 20; Plant response rating, Foxtail, Giant [14]: 0; Foxtail, Giant plant response rating [14]: 80; Ryegrass, Italian plant response rating [15]: 40; Plant response rating, Ryegrass, Italian [15]: 100; Ragweed plant response rating [16]: 20; Plant response rating, Ragweed [16]: 80
